Test [1] addresses T1, MecA (Staphylococcus aureus, UniProt Q7DHH4).
T1 sequence (Q7DHH4 whole entry): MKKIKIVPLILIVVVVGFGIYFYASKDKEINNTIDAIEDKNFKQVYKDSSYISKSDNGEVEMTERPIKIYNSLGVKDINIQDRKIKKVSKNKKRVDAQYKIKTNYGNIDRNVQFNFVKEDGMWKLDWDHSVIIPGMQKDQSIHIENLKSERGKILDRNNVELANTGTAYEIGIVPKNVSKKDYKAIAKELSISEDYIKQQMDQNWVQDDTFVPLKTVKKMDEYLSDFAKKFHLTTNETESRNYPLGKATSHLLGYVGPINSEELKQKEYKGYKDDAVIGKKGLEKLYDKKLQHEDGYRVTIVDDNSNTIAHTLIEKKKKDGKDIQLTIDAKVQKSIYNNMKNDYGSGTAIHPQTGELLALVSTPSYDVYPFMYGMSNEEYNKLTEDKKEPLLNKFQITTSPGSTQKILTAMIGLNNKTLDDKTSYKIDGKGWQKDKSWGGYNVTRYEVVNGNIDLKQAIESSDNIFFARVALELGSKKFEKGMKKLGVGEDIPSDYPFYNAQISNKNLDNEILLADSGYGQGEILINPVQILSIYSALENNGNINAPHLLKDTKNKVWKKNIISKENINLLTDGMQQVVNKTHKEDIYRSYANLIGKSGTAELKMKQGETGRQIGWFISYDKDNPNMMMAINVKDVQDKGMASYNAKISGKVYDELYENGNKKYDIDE
In words: Binding affinity against PBP2a receptor by competition analysis with [3H]benzylpenicillin using cell membrane fractions from the MRSA COL strain.

Test [2] deals with Staphylococcus aureus. In words: Antibacterial activity against methicillin-resistant Staphylococcus aureus (MRSA). The test is classed as functional.
In test [3] the test system is Staphylococcus sp. In words: Antibacterial activity against methicillin-resistant coagulase negative Staphylococci (MRCNS). The test is classed as functional.

The text below walks through data of ChEMBL document CHEMBL1131884, “Dicationic 2-fluorenonylcarbapenems: potent anti-MRS agents with improved solubility and pharmacokinetic properties” (Bioorg Med Chem Lett, 1999).

On to `C[C@@H](O)[C@H]1C(=O)N2C(C(=O)O)=C(c3ccc4c(c3)-c3ccc(C[N+]56CC[N+](CC(=O)Nc7ccncc7)(CC5)CC6)cc3C4=O)[C@H](C)[C@H]12.[Cl-].[Cl-]`, for which the IC50 – broadly, the concentration needed to halve the response being measured – in test [1] is 1.19 µM. For the same compound, the MIC50 (in general, the lowest concentration that inhibits either 50% of growth or 50% of the strains tested, depending on the study) in test [2] stood at 1 µg/mL; in test [3] it was 2 µg/mL. The MIC90 (commonly an inhibitory concentration at the 90% level, which refers to growth in some studies and to a panel of isolates in others) turned out to be 2 µg/mL in test [2] and 4 µg/mL in test [3].

For the compound `CCC[N+]12CC[N+](Cc3ccc4c(c3)C(=O)c3ccc(C5=C(C(=O)O)N6C(=O)[C@H]([C@@H](C)O)[C@H]6[C@H]5C)cc3-4)(CC1)CC2.[Cl-].[Cl-]`, the IC50 in test [1] was 0.907 µM. Moreover, in test [2], the MIC50 came out at 4 µg/mL and the MIC90 is 4 µg/mL. In test [3], the MIC50 was determined as 4 µg/mL and the MIC90 came out at 8 µg/mL.

Regarding `C[C@@H](O)[C@H]1C(=O)N2C(C(=O)O)=C(c3ccc4c(c3)-c3ccc(C[N+]56CC[N+](CC(=O)NC7CCCC7)(CC5)CC6)cc3C4=O)[C@H](C)[C@H]12.[Cl-].[Cl-]`, in test [1], the IC50 is 1.41 µM. In test [2], the MIC50 worked out at 2 µg/mL and the MIC90 stood at 4 µg/mL. Further, in test [3], the MIC50 was determined as 4 µg/mL and the MIC90 stood at 8 µg/mL.

The compound `C[C@@H](O)[C@H]1C(=O)N2C(C(=O)O)=C(c3ccc4c(c3)-c3ccc(C[N+]56CC[N+](Cc7ccccc7)(CC5)CC6)cc3C4=O)[C@H](C)[C@H]12.[Cl-].[Cl-]` showed an IC50 in test [1] of 3.25 µM. In addition, the MIC50 in test [2] was 1 µg/mL; in test [3] it was 2 µg/mL. Besides, the MIC90 in test [2] worked out at 2 µg/mL; in test [3] it was 8 µg/mL.

`C[C@@H](O)[C@H]1C(=O)N2C(C(=O)O)=C(c3ccc4c(c3)-c3ccc(C[N+]56CC[N+](CC(=O)NC(C)(C)C)(CC5)CC6)cc3C4=O)[C@H](C)[C@H]12.[Cl-].[Cl-]`: the IC50 in test [1] was 3.43 µM. The MIC50 in test [2] stood at 2 µg/mL; in test [3] it was 4 µg/mL. The MIC90 in test [2] turned out to be 4 µg/mL; in test [3], 8 µg/mL.

Take `C[C@@H](O)[C@H]1C(=O)N2C(C(=O)O)=C(c3ccc4c(c3)-c3ccc(C[N+]56CC[N+](CC(=O)NCc7ccccc7)(CC5)CC6)cc3C4=O)[C@H](C)[C@H]12.[Cl-].[Cl-]`: in test [1], the IC50 is 1.32 µM. Also, the MIC50 in test [2] and in test [3] was 1 µg/mL in each case. In addition, the MIC90 in test [2] is 2 µg/mL; in test [3], 4 µg/mL.

Regarding `CNC(=O)C[N+]12CC[N+](Cc3ccc4c(c3)C(=O)c3ccc(C5=C(C(=O)O)N6C(=O)[C@H]([C@@H](C)O)[C@H]6C5)cc3-4)(CC1)CC2.[Cl-].[Cl-]`, the MIC50 in test [2] and in test [3] was 2 µg/mL each time. Moreover, the MIC90 in test [2] came out at 8 µg/mL; in test [3], 4 µg/mL.

As for `C[C@@H](O)[C@H]1C(=O)N2C(C(=O)O)=C(c3ccc4c(c3)-c3ccc(C[N+]56CC[N+](CC(=O)Nc7ccccn7)(CC5)CC6)cc3C4=O)[C@H](C)[C@H]12.[Cl-].[Cl-]`, in test [1], the IC50 was 0.43 µM. In addition, the MIC50 in test [2] and in test [3] was 2 µg/mL each time. Moreover, the MIC90 was found to be 4 µg/mL in test [2] and 8 µg/mL in test [3].

The compound `CC[N+]12CC[N+](Cc3ccc4c(c3)C(=O)c3ccc(C5=C(C(=O)O)N6C(=O)[C@H]([C@@H](C)O)[C@H]6C5)cc3-4)(CC1)CC2.[Cl-].[Cl-]` showed an IC50 in test [1] of 0.416 µM. For the same compound, the MIC50 in test [2] and in test [3] was 2 µg/mL each time. Moreover, the MIC90 in test [2] and in test [3] was 4 µg/mL in each case.

`COc1cccc(NC(=O)C[N+]23CC[N+](Cc4ccc5c(c4)C(=O)c4ccc(C6=C(C(=O)O)N7C(=O)[C@H]([C@@H](C)O)[C@H]7[C@H]6C)cc4-5)(CC2)CC3)c1.[Cl-].[Cl-]`: the IC50 in test [1] was 2.43 µM. Besides, the MIC50 in test [2] and in test [3] was 1 µg/mL each time. The MIC90 in test [2] is 1 µg/mL; in test [3], 4 µg/mL.

The compound `C[C@@H](O)[C@H]1C(=O)N2C(C(=O)O)=C(c3ccc4c(c3)-c3ccc(C[N+]56CC[N+](CC#N)(CC5)CC6)cc3C4=O)C[C@H]12.[Cl-].[Cl-]` gave an IC50 in test [1] of 0.474 µM. In test [2], this compound showed an MIC50 of 2 µg/mL and an MIC90 of 4 µg/mL. Further, in test [3], the MIC50 turned out to be 2 µg/mL and the MIC90 stood at 4 µg/mL.

With `C[C@@H](O)[C@H]1C(=O)N2C(C(=O)O)=C(c3ccc4c(c3)-c3ccc(C[N+]56CC[N+](CCCO)(CC5)CC6)cc3C4=O)[C@H](C)[C@H]12.[Cl-].[Cl-]`, the IC50 in test [1] was 0.729 µM. In addition, the results for the MIC50 in test [2] and in test [3] were 2 µg/mL and 4 µg/mL, respectively. Also, the values for the MIC90 in test [2] and in test [3] were 4 µg/mL and 8 µg/mL, respectively.

In test [1], `C[C@@H](O)[C@H]1C(=O)N2C(C(=O)O)=C(c3ccc4c(c3)-c3ccc(C[N+]56CC[N+](CC(=O)Nc7ccc(C#N)cc7)(CC5)CC6)cc3C4=O)[C@H](C)[C@H]12.[Cl-].[Cl-]` gave an IC50 of 1.41 µM. Besides, in test [2], the MIC50 is 1 µg/mL and the MIC90 was found to be 2 µg/mL. In test [3], this compound gave an MIC50 of 1 µg/mL and an MIC90 of 4 µg/mL.

Turning to `C[C@@H](O)[C@H]1C(=O)N2C(C(=O)O)=C(c3ccc4c(c3)-c3ccc(C[N+]56CC[N+](CC(=O)Nc7ccc(CCO)cc7)(CC5)CC6)cc3C4=O)[C@H](C)[C@H]12.[Cl-].[Cl-]`, the IC50 in test [1] was 1.31 µM. In test [2], this compound yielded an MIC50 of 1 µg/mL and an MIC90 of 2 µg/mL. In test [3], this compound showed an MIC50 of 2 µg/mL and an MIC90 of 4 µg/mL.

Take `COc1ccccc1NC(=O)C[N+]12CC[N+](Cc3ccc4c(c3)C(=O)c3ccc(C5=C(C(=O)O)N6C(=O)[C@H]([C@@H](C)O)[C@H]6[C@H]5C)cc3-4)(CC1)CC2.[Cl-].[Cl-]`: in test [1], the IC50 is 0.867 µM. Besides, the values for the MIC50 in test [2] and in test [3] were 1 µg/mL and 2 µg/mL, respectively. Moreover, the MIC90 in test [2] was 2 µg/mL; in test [3], 4 µg/mL.

The compound `C[C@@H](O)[C@H]1C(=O)N2C(C(=O)O)=C(c3ccc4c(c3)-c3ccc(C[N+]56CC[N+](C)(CC5)CC6)cc3C4=O)[C@H](C)[C@H]12.[Cl-].[Cl-]` showed an IC50 in test [1] of 1.23 µM. Besides, the MIC50 in test [2] was determined as 2 µg/mL; in test [3], 4 µg/mL. The MIC90 in test [2] worked out at 4 µg/mL; in test [3], 8 µg/mL.

The compound `COc1ccc(NC(=O)C[N+]23CC[N+](Cc4ccc5c(c4)C(=O)c4ccc(C6=C(C(=O)O)N7C(=O)[C@H]([C@@H](C)O)[C@H]7[C@H]6C)cc4-5)(CC2)CC3)cc1.[Cl-].[Cl-]` showed an IC50 in test [1] of 1.19 µM. Also, in test [2], the MIC50 worked out at 1 µg/mL and the MIC90 worked out at 1 µg/mL. Also, in test [3], the MIC50 came out at 1 µg/mL and the MIC90 was determined as 4 µg/mL.

Consider `C[C@@H](O)[C@H]1C(=O)N2C(C(=O)O)=C(c3ccc4c(c3)-c3ccc(C[N+]56CC[N+](CC(=O)Nc7cccc(C#N)c7)(CC5)CC6)cc3C4=O)[C@H](C)[C@H]12.[Cl-].[Cl-]`, for which, in test [1], the IC50 is 0.752 µM. The MIC50 in test [2] is 0.5 µg/mL; in test [3], 1 µg/mL. In addition, the MIC90 in test [2] was found to be 1 µg/mL; in test [3], 2 µg/mL.

For the compound `C[C@@H](O)[C@H]1C(=O)N2C(C(=O)O)=C(c3ccc4c(c3)-c3ccc(C[N+]56CC[N+](CC(=O)Nc7ccc(CO)cc7)(CC5)CC6)cc3C4=O)[C@H](C)[C@H]12.[Cl-].[Cl-]`, in test [1], the IC50 was 2.67 µM. Also, in test [2], the MIC50 amounted to 1 µg/mL and the MIC90 came out at 2 µg/mL. In test [3], this compound had an MIC50 of 1 µg/mL and an MIC90 of 4 µg/mL.

`C[C@@H](O)[C@H]1C(=O)N2C(C(=O)O)=C(c3ccc4c(c3)-c3ccc(C[N+]56CC[N+](CC(=O)Nc7ccccc7)(CC5)CC6)cc3C4=O)[C@H](C)[C@H]12.[Cl-].[Cl-]` gave an IC50 in test [1] of 1.78 µM. In addition, the MIC50 in test [2] and in test [3] was 2 µg/mL in each case. The MIC90 was 2 µg/mL in test [2] and 4 µg/mL in test [3].

In test [2], `C[C@@H](O)[C@H]1C(=O)N2C(C(=O)O)=C(c3ccc4c(c3)-c3ccc(C[N+]56CC[N+](CC(=O)c7ccccc7)(CC5)CC6)cc3C4=O)C[C@H]12.[Cl-].[Cl-]` returned an MIC50 of 2 µg/mL and an MIC90 of 4 µg/mL. Besides, in test [3], the MIC50 was 2 µg/mL and the MIC90 worked out at 4 µg/mL.

In test [2], `COC(=O)C[N+]12CC[N+](Cc3ccc4c(c3)C(=O)c3ccc(C5=C(C(=O)O)N6C(=O)[C@H]([C@@H](C)O)[C@H]6C5)cc3-4)(CC1)CC2.[Cl-].[Cl-]` returned an MIC50 of 8 µg/mL and an MIC90 of 16 µg/mL. In test [3], the MIC50 came to 16 µg/mL and the MIC90 came out at 16 µg/mL.

For `C[C@@H](O)[C@H]1C(=O)N2C(C(=O)O)=C(c3ccc4c(c3)-c3ccc(C[N+]56CC[N+](CC(=O)N(C)C)(CC5)CC6)cc3C4=O)C[C@H]12.[Cl-].[Cl-]`, the MIC50 in test [2] and in test [3] was 4 µg/mL throughout. Besides, the MIC90 in test [2] and in test [3] was 4 µg/mL in each case.

Regarding `CC(=O)C[N+]12CC[N+](Cc3ccc4c(c3)C(=O)c3ccc(C5=C(C(=O)O)N6C(=O)[C@H]([C@@H](C)O)[C@H]6C5)cc3-4)(CC1)CC2.[Cl-].[Cl-]`, the MIC50 in test [2] was determined as 2 µg/mL; in test [3], 4 µg/mL. In addition, the MIC90 in test [2] turned out to be 8 µg/mL; in test [3], 4 µg/mL.
